For 22 compounds, T/C results are on record in PubChem BioAssay AID248 (DTP/NCI, 2004).

Molecules are shown by their SMILES. Values joined by “and” are separate entries in the source; they are usually repeats but may differ in a detail not shown here. Identical values can stand only once. Toxic doses and inconclusive results are not listed.

This test deals with L1210 leukemia ip in BDF1 mice, survival T/C. In words: NCI In Vivo Anticancer Drug Screen. Data for tumor model L1210 Leukemia (intraperitoneal) in B6D2F1 (BDF1) mice. Particulars: endpoint: mean survival time, higher = longer survival. The essentials:
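Each compound was tested against a transplantable tumor grown in mice. The endpoint was survival, with treated animals benchmarked against vehicle controls as a simple ratio.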

Where [1] appears, read: dose: 25.0 mg/kg/injection, schedule: Q04DX003 (ip), vehicle: Klucel (hydroxypropylcellulose) (HPC).
Setting [2] is: dose: 50.0 mg/kg/injection, schedule: Q04DX003 (ip), vehicle: Klucel (hydroxypropylcellulose) (HPC).
Setting [3] is: dose: 100.0 mg/kg/injection, schedule: Q04DX003 (ip), vehicle: Klucel (hydroxypropylcellulose) (HPC).
Setting [4] is: dose: 100.0 mg/kg/injection, schedule: Q04DX002 (ip), vehicle: saline with Tween-80.
The mark [5] stands for this setting: dose: 200.0 mg/kg/injection, schedule: Q04DX002 (ip), vehicle: saline with Tween-80.
[6] abbreviates: dose: 400.0 mg/kg/injection, schedule: Q04DX002 (ip), vehicle: saline with Tween-80.
Where [7] appears, read: dose: 200.0 mg/kg/injection, schedule: Q01DX001 (ip), vehicle: carboxymethylcellulose (CMC).
The mark [8] stands for this setting: dose: 400.0 mg/kg/injection, schedule: Q01DX001 (ip), vehicle: carboxymethylcellulose (CMC).
Setting [9] is: dose: 50.0 mg/kg/injection, schedule: Q01DX009 (ip), vehicle: Klucel (hydroxypropylcellulose) (HPC).
Where [10] appears, read: dose: 100.0 mg/kg/injection, schedule: Q01DX009 (ip), vehicle: Klucel (hydroxypropylcellulose) (HPC).
[11] abbreviates: dose: 200.0 mg/kg/injection, schedule: Q01DX009 (ip), vehicle: Klucel (hydroxypropylcellulose) (HPC).
[12] abbreviates: dose: 200.0 mg/kg/injection, schedule: Q04DX003 (ip), vehicle: Klucel (hydroxypropylcellulose) (HPC).
Where [13] appears, read: dose: 400.0 mg/kg/injection, schedule: Q04DX003 (ip), vehicle: saline with Tween-80.
The mark [14] stands for this setting: dose: 100.0 mg/kg/injection, schedule: Q01DX001 (ip), vehicle: saline.
The mark [15] stands for this setting: dose: 200.0 mg/kg/injection, schedule: Q01DX001 (ip), vehicle: saline.
[16] abbreviates: dose: 400.0 mg/kg/injection, schedule: Q01DX001 (ip), vehicle: saline.
Where [17] appears, read: dose: 400.0 mg/kg/injection, schedule: Q04DX003 (ip), vehicle: Klucel (hydroxypropylcellulose) (HPC).

Turning to `Nc1cccc2cc3ccccc3nc12`, the T/C was 102 % of control under setting [1], 92 % of control under setting [2] and 86 % of control under setting [3].

Turning to `CCNP(=S)(SCC)SCC`, the T/C by setting is: under setting [4], 96 % of control; under setting [5], 89 % of control; under setting [6], 101 % of control.

Regarding `CSc1nc(N)c(N=Nc2ccc(S(=O)(=O)Nc3occ(C)c3C)cc2)c(=O)[nH]1`, the T/C was 97 % of control (dose: 100.0 mg/kg/injection, schedule: Q01DX001 (ip), vehicle: carboxymethylcellulose (CMC)); 92 % of control under setting [7]; 94 % of control under setting [8].

Regarding `O=C(O)CCC1CCCCC1=O` (stereo not given), the T/C reads like this: under setting [9], 104 % of control; under setting [2], 98 % of control; under setting [10], 95 % of control; under setting [3], 97 % of control; under setting [11], 98 % of control; under setting [12], 98 % of control.

For `O=C(Nc1ccc(C2=NCCN2)cc1)c1ccc(C(=O)Nc2ccc(C3=NCCN3)cc2)c2ccccc12`, the T/C is 102 % of control (dose: 3.75 mg/kg/injection, schedule: Q01DX Z (ip), vehicle: methylcellulose (MC)); 118 % of control (dose: 7.5 mg/kg/injection, schedule: Q01DX Z (ip), vehicle: methylcellulose (MC)); 169 % of control (dose: 15.0 mg/kg/injection, schedule: Q01DX Z (ip), vehicle: methylcellulose (MC)); 166 % of control and 170 % of control (dose: 30.0 mg/kg/injection, schedule: Q01DX Z (ip), vehicle: methylcellulose (MC)); 102 % of control (dose: 30.0 mg/kg/injection, schedule: Q01DX Z (oral), vehicle: carboxymethylcellulose (CMC)); 94 % of control (dose: 120.0 mg/kg/injection, schedule: Q01DX Z (oral), vehicle: carboxymethylcellulose (CMC)).

With `COC(=O)CN(c1c(C)cc(C)c(NS(=O)(=O)c2ccccc2)c1C)S(=O)(=O)c1ccccc1`, the T/C (dose: 100.0 mg/kg/injection, schedule: Q01DX001 (ip), vehicle: Klucel (hydroxypropylcellulose) (HPC)) was 92 % of control; the T/C (dose: 200.0 mg/kg/injection, schedule: Q01DX001 (ip), vehicle: Klucel (hydroxypropylcellulose) (HPC)) is 96 % of control; the T/C (dose: 400.0 mg/kg/injection, schedule: Q01DX001 (ip), vehicle: Klucel (hydroxypropylcellulose) (HPC)) was 97 % of control.

For `CC(C)N1C(Nc2ccccn2)C(C)(C)C(C)(C)C1Nc1ccccn1` (stereo not given), the T/C was 110 % of control (dose: 100.0 mg/kg/injection, schedule: Q04DX002 (ip), vehicle: gum acacia); 120 % of control (dose: 200.0 mg/kg/injection, schedule: Q04DX002 (ip), vehicle: gum acacia); 97 % of control (dose: 400.0 mg/kg/injection, schedule: Q04DX002 (ip), vehicle: gum acacia).

`CCCCCCCCCCCCCCCCCCCCCCCC(=O)OCC`: the T/C under setting [13] is 92 % of control.

With `N=C1N=C(N)CS1`, the T/C runs as follows: under setting [14], 95 % of control; under setting [15], 104 % of control; under setting [16], 101 % of control.

Turning to `CN(CCO)C1CCCCCCC1`, the T/C (dose: 100.0 mg/kg/injection, schedule: Q01DX001 (ip), vehicle: acetone) was 100 % of control.

In the case of `C=Cc1c(C)c(O)cc2c1CC[C@@H]1C(C)(C)[C@H](O)[C@H](O)C[C@@]21C`, the T/C (dose: 100.0 mg/kg/injection, schedule: Q04DX003 (ip), vehicle: saline with Tween-80) was 103 % of control; the T/C (dose: 200.0 mg/kg/injection, schedule: Q04DX003 (ip), vehicle: saline with Tween-80) was 100 % of control; the T/C under setting [13] is 98 % of control.

With `CCCC#CCCCN1CCC2(CC1)C(=O)NCN2c1ccccc1`, the T/C was 103 % of control (dose: 20.0 mg/kg/injection, schedule: Q04DX003 (ip), vehicle: Klucel (hydroxypropylcellulose) (HPC)); 103 % of control (dose: 40.0 mg/kg/injection, schedule: Q04DX003 (ip), vehicle: Klucel (hydroxypropylcellulose) (HPC)); 91 % of control (dose: 80.0 mg/kg/injection, schedule: Q04DX003 (ip), vehicle: Klucel (hydroxypropylcellulose) (HPC)); 93 % of control under setting [3].

`Cc1cc(Br)c2ccccc2c1N(CC(=O)O)S(=O)(=O)c1ccccc1`: the T/C by setting is: (dose: 100.0 mg/kg/injection, schedule: Q01DX001 (ip), vehicle: saline sonified) 97 % of control; (dose: 100.0 mg/kg/injection, schedule: Q01DX009 (ip), vehicle: saline with Tween-80) 91 % of control; (dose: 200.0 mg/kg/injection, schedule: Q01DX001 (ip), vehicle: saline sonified) 100 % of control; (dose: 200.0 mg/kg/injection, schedule: Q01DX009 (ip), vehicle: saline with Tween-80) 91 % of control; (dose: 400.0 mg/kg/injection, schedule: Q01DX001 (ip), vehicle: saline sonified) 97 % of control; (dose: 400.0 mg/kg/injection, schedule: Q01DX009 (ip), vehicle: saline with Tween-80) 97 % of control.

Consider `Nc1cc(Cl)c2ncn(C3OC(CO)C(O)C3O)c2n1` (stereo not given), for which the T/C is 98 % of control under setting [14]; 110 % of control (dose: 100.0 mg/kg/injection, schedule: Q01DX005 (ip), vehicle: saline); 101 % of control under setting [15]; 115 % of control (dose: 200.0 mg/kg/injection, schedule: Q01DX005 (ip), vehicle: saline); 114 % of control under setting [16].

Regarding `COC1OC(CO)C(O)C(O)C1NC(C)=O` (stereo not given), the T/C is 106 % of control under setting [14], 103 % of control under setting [15] and 104 % of control under setting [16].

Consider `NC1=NC(=O)C(c2ccccc2)O1` (stereo not given), for which the T/C is 88 % of control (dose: 25.0 mg/kg/injection, schedule: Q01DX009 (ip), vehicle: Klucel (hydroxypropylcellulose) (HPC)); 92 % of control under setting [1]; 94 % of control under setting [9]; 95 % of control under setting [2]; 91 % of control under setting [10]; 103 % of control under setting [3]. In addition, the T/C was 102 % of control under setting [11], 103 % of control under setting [12] and 89 % of control under setting [17].

In the case of `c1ccc2c(c1)ccc1cc3c4ccccc4c4ccccc4c3cc12`, the T/C by setting is: (dose: 50.0 mg/kg/injection, schedule: Q01DX001 (ip), vehicle: carboxymethylcellulose (CMC)) 97 % of control; under setting [7], 90 % of control; under setting [8], 106 % of control.

`CCCCCSP(=O)(SCCCCC)c1ccccc1`: the T/C by setting is: under setting [10], 91 % of control; under setting [11], 94 % of control.

In the case of `CC1(C)N=C(N)N=C(N)N1c1cccc(OCCOc2ccc(NC(=O)CBr)cc2)c1`, the T/C is 124 % of control (dose: 50.0 mg/kg/injection, schedule: Q01DX009 (ip), vehicle: saline); 94 % of control under setting [14]; 172 % of control (dose: 100.0 mg/kg/injection, schedule: Q01DX009 (ip), vehicle: other); 154 % of control (dose: 150.0 mg/kg/injection, schedule: Q01DX009 (ip), vehicle: other); 109 % of control under setting [15]; 100 % of control (dose: 200.0 mg/kg/injection, schedule: Q01DX009 (ip), vehicle: other). Moreover, the T/C runs as follows: (dose: 200.0 mg/kg/injection, schedule: Q01DX009 (ip), vehicle: saline) 97 % of control; under setting [16], 112 % of control.

As to `Cc1ccn2c(=O)cc(O)nc2c1`, the T/C is 101 % of control (dose: 50.0 mg/kg/injection, schedule: Q01DX001 (ip), vehicle: saline); 98 % of control under setting [14]; 92 % of control under setting [15]; 98 % of control under setting [16].

In the case of `Nc1ccn(CC(=O)c2cc3ccccc3[nH]2)c(=O)n1`, the T/C is, setting by setting: under setting [4], 101 % of control; under setting [5], 97 % of control; under setting [6], 108 % of control.

Turning to `CN(C)P(=O)(Nc1ccc(Cl)cc1)Nc1ccc(Cl)cc1`, the T/C runs as follows: under setting [3], 94 % of control; under setting [12], 96 % of control; under setting [17], 100 % of control.
